Results on five compounds are retold here after US6747164B2, “Use of amine compounds with improved biodegradability as adjuvants for pesticides and fertilizers” (priority 2000, dated 2004).

What all share (assay type): in vivo
The test system of one assay is Lolium rigidum. The assay is described as follows: Greenhouse test of glyphosate/adjuvant formulations with Lolium rigidum.
A further assay has as its system Brassica napus. The assay is described as follows: Greenhouse test of glyphosate/adjuvant formulations with Brassica napus.
For another assay, the system named is Elymus repens. The assay is described as follows: Greenhouse test of glyphosate/adjuvant formulations with Elymus repens.
[1] abbreviates: Example 2, Table 4, glyphosate 0.75 kg a.e./ha, glyphosate/adjuvant 2:1, 4 weeks after spraying.

“And” between values parts separate entries of the source, which are not always exact repeats. Identical values can stand only once.

For “Cocoamide of N,N-bishydroxyethyl-1,3-propylenediamine”, the Effect with Lolium rigidum (Example 2, Table 5, glyphosate 0.08 kg a.e./ha, glyphosate/adjuvant 2:1, 4 weeks after spraying) came to 57%; with Lolium rigidum (Example 2, Table 5, glyphosate 0.08 kg a.e./ha, glyphosate/adjuvant 5:1, 4 weeks after spraying), 23%; in the assay with Lolium rigidum (Example 2, Table 5, glyphosate 0.15 kg a.e./ha, glyphosate/adjuvant 2:1, 4 weeks after spraying), 78%; in the assay on Lolium rigidum (Example 2, Table 5, glyphosate 0.15 kg a.e./ha, glyphosate/adjuvant 5:1, 4 weeks after spraying) it was 72%; with Lolium rigidum (Example 2, Table 5, glyphosate 0.25 kg a.e./ha, glyphosate/adjuvant 2:1, 4 weeks after spraying) it was 97%; in the assay with Lolium rigidum (Example 2, Table 5, glyphosate 0.25 kg a.e./ha, glyphosate/adjuvant 5:1, 4 weeks after spraying), 88%. Moreover, the Effect in the assay on Lolium rigidum (Example 3, Table 8, glyphosate 0.08 kg a.e./ha, glyphosate/adjuvant 2:1, 4 weeks after spraying) turned out to be 40%; in the assay with Lolium rigidum (Example 3, Table 8, glyphosate 0.15 kg a.e./ha, glyphosate/adjuvant 2:1, 4 weeks after spraying), 58%; with Lolium rigidum (Example 3, Table 8, glyphosate 0.25 kg a.e./ha, glyphosate/adjuvant 2:1, 4 weeks after spraying), 93%; in the assay with Brassica napus (Example 2, Table 4, glyphosate 0.15 kg a.e./ha, glyphosate/adjuvant 2:1, 4 weeks after spraying), 40%; in the assay on Brassica napus (Example 2, Table 4, glyphosate 0.15 kg a.e./ha, glyphosate/adjuvant 5:1, 4 weeks after spraying) it was 8%; in the assay on Brassica napus (Example 2, Table 4, glyphosate 0.25 kg a.e./ha, glyphosate/adjuvant 2:1, 4 weeks after spraying), 70%. Besides, the Effect turned out to be 73% in the assay on Brassica napus (Example 2, Table 4, glyphosate 0.25 kg a.e./ha, glyphosate/adjuvant 5:1, 4 weeks after spraying); 98% in the assay on Brassica napus (setting [1]); 87% in the assay on Brassica napus (Example 2, Table 4, glyphosate 0.75 kg a.e./ha, glyphosate/adjuvant 5:1, 4 weeks after spraying); 45% in the assay on Brassica napus (Example 3, Table 7, glyphosate 0.15 kg a.e./ha, glyphosate/adjuvant 2:1, 4 weeks after spraying); 52% with Brassica napus (Example 3, Table 7, glyphosate 0.25 kg a.e./ha, glyphosate/adjuvant 2:1, 4 weeks after spraying); 90% in the assay on Brassica napus (Example 3, Table 7, glyphosate 0.75 kg a.e./ha, glyphosate/adjuvant 2:1, 4 weeks after spraying). In addition, the Effect with Elymus repens (Example 2, Table 3, glyphosate 0.15 kg a.e./ha, glyphosate/adjuvant 2:1, 5 weeks after spraying, 100% = totally dead plant) worked out at 13%; in the assay on Elymus repens (Example 2, Table 3, glyphosate 0.15 kg a.e./ha, glyphosate/adjuvant 5:1, 5 weeks after spraying), 8%; with Elymus repens (Example 2, Table 3, glyphosate 0.25 kg a.e./ha, glyphosate/adjuvant 2:1, 5 weeks after spraying), 75%; with Elymus repens (Example 2, Table 3, glyphosate 0.25 kg a.e./ha, glyphosate/adjuvant 5:1, 5 weeks after spraying), 65%; in the assay on Elymus repens (Example 2, Table 3, glyphosate 0.75 kg a.e./ha, glyphosate/adjuvant 2:1, 5 weeks after spraying) it was 97%; in the assay on Elymus repens (Example 2, Table 3, glyphosate 0.75 kg a.e./ha, glyphosate/adjuvant 5:1, 5 weeks after spraying), 95%. Also, the Effect in the assay with Elymus repens (Example 3, Table 6, glyphosate 0.15 kg a.e./ha, glyphosate/adjuvant 2:1, 7 weeks after spraying) is on record as 33%; with Elymus repens (Example 3, Table 6, glyphosate 0.25 kg a.e./ha, glyphosate/adjuvant 2:1, 7 weeks after spraying), 47%; with Elymus repens (Example 3, Table 6, glyphosate 0.75 kg a.e./ha, glyphosate/adjuvant 2:1, 7 weeks after spraying), 100%.

Consider `CCCCCCOC1OC(CO)C(O)C(O)C1O` (centres unmarked) [Hexyl glucoside, reference compound], for which the Effect with Brassica napus (setting [1]) was determined as 57%.

Regarding `CCCCC(CC)COC1OC(CO)C(O)C(O)C1O` (centres unmarked) [2-ethylhexyl glucoside, reference compound], the Effect in the assay on Brassica napus (setting [1]) is recorded as 63%.

Regarding “Monoester between polyethyleneglycol (4.5 EO)-monococo ether monocarboxymethyl ether and triethanolamine”, the Effect with Lolium rigidum (in vivo) is 52% and 72% and 96%; in the assay with Brassica napus (in vivo) it was 58% and 75% and 92%.

“Monoester between polyethyleneglycol (2.5 EO)-monococo ether monocarboxymethyl ether and triethanolamine”: the Effect in the assay with Lolium rigidum (in vivo) was 48% and 68% and 88%.
